The results in this text go back to patent US11142588B2, “Polypeptides which bind C-X-C chemokine receptor type 4 (CXCR4) and methods of treating or reducing the risk of fibrosis and cancer” (AdAlta Limited, priority 2015, dated 2021).

Several values for one entry are separate records, joined by “and”; a condition that tells them apart may be missing. Identical values can stand only once.

The IC50 is the point on the concentration scale where inhibition reaches its midpoint. As a reminder, the Kd is the constant that tells how readily two partners part at equilibrium. Low values mean a tighter complex, high ones a looser complex.

Experiment [1] in a line: Laser induced choroidal neovascularisation model. Type of experiment: in vivo, mouse. The procedure: The laser induced choroidal neovascularisation (CNV) is a well characterised and accepted model of choroidal neovascularisation (Fletcher E L et al. (2011) Prog Mol Biol Transl Sci 100:211-286). It is also a rapid method for determining the efficacy of potential treatments that target angiogenesis and fibrosis. Briefly, up to four laser spots are applied to the posterior eye using a continuous wave photocoagulation laser ([…] diode). The laser energy is high enough to create a break in Bruch's membrane. During the following 7-14 days, growth of blood vessels from the choroid into the retina occurs, and is quantified either immuocytochemically, or using fluorescein angiography.
Mice were treated as below: • Group 1 (n=10): laser both eyes-vehicle in one eye; i-body in the other • Group 2 (n=10): Laser one eye (no i-body); other eye unlasered. • The i-body drug was injected intravitreally in 1 μl volume at a concentration up to 20 mg/ml.
The expression of genes associated with angiogenesis and fibrosis was examined. Total RNA was isolated from the retina and RPE/choroidal samples using commercial spin columns (RNeasy, Qiagen, Valencia Calif.). A PCR gene array was used to assess the expression of 84 genes involved angiogenesis or fibrosis (Qiagen). Briefly, total RNA samples from untreated, laser treated eyes and untreated fellow eyes (n=9 each group, each 25 ng) were pooled within their respective treatment groups (3 independent experiments containing 3 pooled samples), reversed transcribed (RT2 first strand, Qiagen) and then underwent pre-amplification of the cDNA target templates (RT2 pre-AMP, Qiagen). Samples were added to a commercial mastermix (RT2 SYBR green mastermix, Qiagen) and amplified for 40 cycles (ABI 7900HT, Life Technologies, Grand Island N.Y.). Three independent arrays were performed for each treatment group. The data were analysed using delata delta Ct (ΔΔCt), expressed as fold change and regulation assessed using an unpaired t-test.

Experiment [2] relates to normal and IPF lung fibroblasts. Briefly: Wound healing invasion assay of lung fibroblasts. The format is cell-based, human. As to conditions: 130 μg/ml. In a few lines:
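Normal and slow- or rapid-progressing IPF lung fibroblasts were plated overnight on basement membrane extract (50 μg/ml coating), then overlaid with BME polymerised at 37° C for 15 min. Wound invasion was imaged every 2 h for about 50 h and quantified by image analysis.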

Experiment [3] has as its system white blood cells, LSK and LSKSLAM cells in peripheral blood. Briefly: Stem cell mobilisation in mice after i.v. injection. Type of experiment: in vivo, mouse. The settings on record: 1 and 3 hours after i.v. injection, compared to AMD3100. The method, then:
After 1 and 3 hours, mice were euthanized and peripheral blood (PB) harvested. Spleens were harvested and weighed to assess for splenomegaly (enlargement of the spleen). Samples were lysed to remove red blood cells and 4000 cells plated for LPP (low-proliferative potential) and CFU-HPP (colony forming unit-high proliferative potential) colonies (colony counting 7 days post-plating). The remaining cells were stained with an antibody cocktail to assess lineage-committed, stem and progenitor cell content. Flow cytometric analysis was used to calculate numbers of lineage-committed cells, haemopoietic stem and progenitor cells as well as enriched HSC per volume of PB.

Experiment [4] concerns the target T1, CXCR4 (Homo sapiens, UniProt P61073). The experiment is described as follows: Calcium flux assay (Screen Quest Fluo-8, FLIPR) in antagonist mode. Type of experiment: cell-based. The settings on record: SDF-1 at EC80.
Procedure: Inhibition of Ca2+ influx by controls or i-bodies (IC50) was then determined.
Mammalian cells stably expressing human CXCR4 receptor were produced in-house by Multispan, Inc (catalog no. C1004-1). Control agonist used was SDF-1 (Peprotech, Cat #300-28A).
Cells were seeded in 384-well plate at an appropriate density and cultured overnight. Calcium assay was conducted according to the manufacturer's protocols. The calcium dye loading buffer was added to the cells and incubated for one hour at 37° C. Calcium flux was monitored for 120 seconds with compound injected into the wells at 19th second. In antagonist mode, carrier or compounds were preincubated with the cells for 30 minutes before calcium flux measurement with the control agonist at EC80 concentration obtained from dose-response curve.
The target in experiment [5] is T1, CXCR4. The experiment is described as follows: HitHunter cAMP assay in antagonist mode. Type of experiment: cell-based. As to conditions: SDF-1 at EC80, forskolin 15 μM, read-out: cAMP inhibition IC50. On the technique in general: Cyclic AMP is a second messenger, typically raised through Gs and lowered through Gi signalling.
Source text: Hit Hunter® cAMP assays monitor the activation of a GPCR via an inhibitory regulative G-protein (Gi) and a stimulative regulative G-protein (Gs) secondary messenger signaling in a homogenous, non-imaging assay format using a technology developed by DiscoveRx called Enzyme Fragment Complementation (EFC) with β-galactosidase (β-Gal) as the functional reporter. The enzyme is split into two complementary portions: EA for Enzyme Acceptor and ED for Enzyme Donor. ED is fused to cAMP and in the assay competes with cAMP generated by cells for binding to a cAMP-specific antibody. Active β-Gal is formed by complementation of exogenous EA to any unbound ED-cAMP.
cAMP Hunter cell lines were expanded from freezer stocks according to standard procedures. The cells were then seeded in a total volume of 20 μL into white walled, 384-well microplates and incubated at 37° C. for the appropriate time prior to testing. cAMP modulation was determined using the DiscoveRx HitHunter cAMP XS+ assay according to manufacturer's instructions. […]
After appropriate compound incubation, assay signal was generated through incubation with 20 μL cAMP XS+ ED/CL lysis cocktail for one hour followed by incubation with 20 μL cAMP XS+ EA reagent for three hours at room temperature. Microplates were read following signal generation with a PerkinElmer Envision™ instrument for chemiluminescent signal detection.
In experiment [6] the target is T2, human CXCR4 (CXCR4 positive lipoparticles) (Homo sapiens, UniProt P61073).
T2 construct: purchased Integral Molecular LEV-101B
T2 sequence (P61073 whole entry): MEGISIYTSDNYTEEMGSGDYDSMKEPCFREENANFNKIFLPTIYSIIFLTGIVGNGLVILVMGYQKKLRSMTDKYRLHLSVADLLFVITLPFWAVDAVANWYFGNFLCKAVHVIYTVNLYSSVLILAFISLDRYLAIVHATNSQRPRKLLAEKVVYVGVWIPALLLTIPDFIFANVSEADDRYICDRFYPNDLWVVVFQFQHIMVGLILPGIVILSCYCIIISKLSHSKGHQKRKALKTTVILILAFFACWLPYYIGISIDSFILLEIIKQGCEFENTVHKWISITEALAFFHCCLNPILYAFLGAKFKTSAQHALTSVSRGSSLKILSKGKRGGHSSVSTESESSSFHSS
The experiment is described as follows: Biacore SPR kinetic binding to immobilised CXCR4 lipoparticles. A general note: Surface plasmon resonance follows binding to a sensor surface in real time, without labels.

The mark [7] stands for this setting: intravitreal, 1 μl up to 20 mg/ml.
[8] abbreviates: CXCR4 expressed on lipoparticles (Table 4).

T1 sequence (P61073 whole entry): as above

As to “AM3-114: affinity matured CXCR4 i-body, SEQ ID NO: 40”, in experiment [1] (PCR gene array), the “pro-fibrotic gene expression in treated eyes” value is reported as “extensive down regulation of pro fibrotic genes”. In experiment [1] (setting [7]), the “contraction of the lasered retinal regions” value is “significant reduction in the contraction” and the “pathological angiogenesis / lesion size” value is listed as “reduction of the lesion size”. The “invasion of normal lung fibroblasts” value in experiment [2] is reported as “neither i-body had any effect”. Besides, the “migration of IPF lung fibroblasts” value in experiment [2] (slow and rapid IPF progressors) is on record as “specifically inhibited migration”. Further, the “mobilisation of white blood cells” value in experiment [3] is “No mobilisation”.

B1: AM3-523: affinity matured CXCR4 i-body, SEQ ID NO: 56 (protein)
chain: LQVDIVPSQGEISVGESKFFLCQVAGSGSHMRISWFSPNGEKLTPNQQRISVVWNDDSSSTLTIYNANIDDAGIYKCVVWVGGYRHRALVLGEATVNVKIFQ
modifications: protein sequence encoding AM3-523
B1: the “Calcium Inhibition EC50” value in experiment [4] is “uM”. For the same molecule, the IC50 in experiment [5] is 225 nM. Moreover, the Kd in experiment [6] (setting [8]) is 9.47 nM and 8.53 nM. The “dissociation rate constant (kd)” value in experiment [6] (setting [8]) is 9150 M⁻¹ s⁻¹ and 8610 M⁻¹ s⁻¹; in experiment [6] (off-rate, CXCR4 expressed on lipoparticles (Table 3)), 0.00998. The “mobilisation of white blood cells” value in experiment [3] is recorded as “No mobilisation”.
